Results on 27 compounds are retold here after US20160193216A1 (Nimbus Iris, Inc., priority 2012, published 2016).

Structures are written as SMILES. Bounds are passed on as bounds.

This assay has as its target T1, IRAK4 (Homo sapiens, UniProt Q9NWZ3).
T1 sequence (Q9NWZ3 1-460): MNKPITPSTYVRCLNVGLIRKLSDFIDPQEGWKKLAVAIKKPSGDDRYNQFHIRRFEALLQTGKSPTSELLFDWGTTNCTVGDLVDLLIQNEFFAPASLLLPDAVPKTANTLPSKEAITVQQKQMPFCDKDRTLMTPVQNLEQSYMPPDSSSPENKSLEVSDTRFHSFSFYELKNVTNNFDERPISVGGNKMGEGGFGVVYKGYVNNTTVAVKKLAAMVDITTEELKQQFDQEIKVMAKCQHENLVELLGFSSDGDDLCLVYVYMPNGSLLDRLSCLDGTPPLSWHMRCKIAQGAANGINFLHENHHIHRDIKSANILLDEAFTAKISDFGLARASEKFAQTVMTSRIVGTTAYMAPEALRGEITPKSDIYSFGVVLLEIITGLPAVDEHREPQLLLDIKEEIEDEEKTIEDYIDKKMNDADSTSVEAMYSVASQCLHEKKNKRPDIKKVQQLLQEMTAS
Nature of the assay: IRAK-4 activity inhibition assay (Caliper). The format is biochemical. The settings on record: 37 μM ATP, 3.5 nM IRAK4.
By IC50 is commonly meant the concentration that gives 50% inhibition. The low end stands for greater potency, the high end for weaker potency. For the compound `CN(C)[C@H]1CC[C@H](Oc2ncnc3sc4c(c23)[C@@H](C[C@H](N)C(N)=O)CC4)CC1` [Compound I-160, (2S)-2-amino-3-[(3R)-12-[[4-(dimethylamino)cyclohexyl]oxy]-7-thia-9,11-diazatricyclo[6.4.0.0[2,6]]dodeca-1(8),2(6),9,11-tetraen-3-yl]propanamide], the IC50 is less than 5 µM.

As to `CC(=O)N1CCc2sc3ncnc(O[C@H]4CC[C@H](N)CC4)c3c2C1` [Compound I-197, 1-[3-[(4-aminocyclohexyl)oxy]-8-thia-4,6, 12-triazatricyclo[7.4.0.0[2,7]]trideca-1(9),2,4,6-tetraen-12-yl]ethan-1-one], the IC50 is 5 to 20 µM.

On to `NC(=O)C[C@H]1CCc2sc3ncnc(N[C@H]4CC[C@H](N5CCOCC5)CC4)c3c21` [Compound I-97, 2-[(3R)-12-[[4-(morpholin-4-yl)cyclohexyl]amino]-7-thia-9,11-diazatricyclo[6.4.0.0̂[2,6]]dodeca-1(12),2(6),8,10-tetraen-3-yl]acetamide], for which the IC50 is less than 5 µM.

Compound `CN(C)[C@H]1CC[C@H](Oc2ncnc3sc4c(c23)CC(CC(N)=O)OC4)CC1` (stereo partly drawn) [Compound I-221, 2-(3-[[4-(dimethylamino)cyclohexyl]oxy]-11-oxa-8-thia-4,6-diazatricyclo[7.4.0.0[2,7]]trideca-1(9),2(7),3,5-tetraen-12-yl)acetamide] registered an IC50 of less than 5 µM.

In turn, `CN(C)[C@H]1CC[C@H](Oc2ncnc3sc4c(c23)CN(C(=O)CCCO)CC4)CC1` [Compound I-190, 1-(3-[[4-(dimethylamino)cyclohexyl]oxy]-8-thia-4,6, 12-triazatricyclo[7.4.0.0[2,7]]trideca-1(9),2,4,6-tetraen-12-yl)-4-hydroxybutan-1-one] showed a 50% inhibitory concentration (IC50) of 20 to 50 µM.

As for `CN(C)[C@H]1CC[C@H](Oc2ncnc3sc4c(c23)CN(C(N)=O)CC4)CC1` [Compound I-201, 3-[[4-(dimethylamino)cyclohexyl]oxy]-8-thia-4,6, 12-triazatricyclo[7.4.0.0[2,7]]trideca-1(9),2,4,6-tetraene-12-carboxamide], the half-inhibitory concentration (IC50) was less than 5 µM.

With `CN(C)[C@H]1CC[C@H](Nc2ncnc3sc4c(c23)[C@@H](CC(N)=O)CC4)CC1` [Compound I-99, 2-[(3R)-12-[[4-(dimethylamino)cyclohexyl]amino]-7-thia-9,11-diazatricyclo[6.4.0.0[2,6]]dodeca-1(12),2(6),8,10-tetraen-3-yl]acetamide], the IC50 is less than 5 µM.

As to `CN(C)[C@H]1CC[C@H](Oc2ncnc3sc4c(c23)[C@@H](CC(O)c2ncco2)CC4)CC1` (stereo in doubt) [Compound I-62, (1S)-2-[(3R)-12-[[4-(dimethylamino)cyclohexyl]oxy]-7-thia-9,11-diazatricyclo[6.4.0.0[2,6]]dodeca-1(8),2(6),9,11-tetraen-3-yl]-1-(1,3-oxazol-2-yl)ethan-1-ol], the IC50 was less than 5 µM.

As for `NC(=O)C(=O)C[C@H]1CCc2sc3ncnc(OC4CCC(N5CCOCC5)CC4)c3c21` (stereo partly drawn) [Compound I-213, 3-[(3R)-12-[[4-(morpholin-4-yl)cyclohexyl]oxy]-7-thia-9, 11-diazatricyclo[6.4.0.0[2,6]]dodeca-1(8),2(6),9, 11-tetraen-3-yl]-2-oxopropanamide], the IC50 is less than 5 µM.

In turn, `CN(C)[C@H]1CC[C@H](Oc2ncnc3sc4c(c23)C(C)(C)CC4)CC1` [Compound I-7, (1r,4r)-4-((5,5-dimethyl-6,7-dihydro-5H-cyclopenta[4,5]thieno[2,3-d]pyrimidin-4-yl)oxy)-N,N-dimethylcyclohexanamine] registered an IC50 of less than 5 µM.

For the compound `CN(C)[C@H]1CC[C@H](Nc2ncnc3sc4c(c23)C(CC(=O)N2CC[C@@H](O)C2)CC4)CC1` (stereo partly drawn) [Compound I-16, 2-(4-(((1r,4R)-4-(dimethylamino)cyclohexyl)amino)-6,7-dihydro-5H-cyclopenta[4,5]thieno[2,3-d]pyrimidin-5-yl)-1-((R)-3-hydroxypyrrolidin-1-yl)ethanone], the IC50 was more than 50 µM.

`CCS(=O)(=O)CC1CCc2sc3ncnc(O[C@H]4CC[C@H](N(C)C)CC4)c3c21` (stereo partly drawn) [Compound I-47, 4-([3-[(ethanesulfonyl)methyl]-7-thia-9,11-diazatricyclo[6.4.0.0[2,6]]dodeca-1(12),2(6),8,10-tetraen-12-yl]oxy)-N,N-dimethylcyclohexan-1-amine]: the IC50 was less than 5 µM.

`OC[C@H]1CCc2sc3ncnc(N[C@H]4CC[C@H](N5CCOCC5)CC4)c3c2C1` [Compound I-210, [(12S)-3-[[4-(morpholin-4-yl)cyclohexyl]amino]-8-thia-4,6-diazatricyclo[7.4.0.0[2,7]]trideca-2,4,6-trien-12-yl]methanol] yielded a 50% inhibitory concentration (IC50) of less than 5 µM.

As for `NC(=O)C[C@H]1CCc2sc3ncnc(OCC4CCNCC4)c3c21` [Compound I-143, 2-[(3R)-12-(piperidin-4-ylmethoxy)-7-thia-9,11-diazatricyclo[6.4.0.0[2,6]]dodeca-1(12),2(6),8,10-tetraen-3-yl]acetamide], the IC50 was in the range of 5 to 20 µM.

`C/C=C/COC[C@H]1CCc2sc3ncnc(O[C@H]4CC[C@H](N(C)C)CC4)c3c21` [Compound I-59, 4-[[(3S)-3-[[(2E)-but-2-en-1-yloxy]methyl]-7-thia-9,11-diazatricyclo[6.4.0.0[2,6]]dodeca-1(8),2(6),9,11-tetraen-12-yl]oxy]-N,N-dimethylcyclohexan-1-amine] showed a half-maximal inhibitory concentration (IC50) of less than 5 µM.

For `CCCOC(=O)N1CCc2sc3ncnc(N[C@H]4CC[C@H](N5CCOCC5)CC4)c3c2C1` [Compound I-186, propyl 3-[[4-(morpholin-4-yl)cyclohexyl]amino]-8-thia-4,6, 12-triazatricyclo[7.4.0.0[2,7]]trideca-1(9),2(7),3,5-tetraene-12-carboxylate], the IC50 is less than 5 µM.

Compound `CN(CCF)[C@H]1CC[C@H](Oc2ncnc3sc4c(c23)[C@@H](CC(N)=O)CC4)CC1` [Compound I-125, 2-((R)-4-(((1r,4R)-4-((2-fluoroethyl)(methyl)amino)cyclohexyl)oxy)-6,7-dihydro-5H-cyclopenta[4,5]thieno[2,3-d]pyrimidin-5-yl)acetamide] showed an IC50 of less than 5 µM.

In turn, `CN(C)[C@H]1CC[C@H](Oc2ncnc3sc4c(c23)CN(C(=O)CCO)CC4)CC1` [Compound I-195, 1-(3-[[4-(dimethylamino)cyclohexyl]oxy]-8-thia-4,6, 12-triazatricyclo[7.4.0.0[2,7]]trideca-1(9),2,4,6-tetraen-12-yl)-3-hydroxypropan-1-one] came in with an IC50 of 5 to 20 µM.

With `NC(=O)CC[C@@H]1CCCc2sc3ncnc(O[C@H]4CC[C@H](N)CC4)c3c21` [Compound I-154, 3-((S)-4-(((1r,4S)-4-aminocyclohexyl)oxy)-5,6,7,8-tetrahydrobenzo[4,5]thieno[2,3-d]pyrimidin-5-yl)propanamide], the IC50 is 5 to 20 µM.

In the case of `C[C@H](O)C[C@H]1CCc2sc3ncnc(O[C@H]4CC[C@H](N(C)CC(=O)N5CCCC5)CC4)c3c21` [Compound I-69, 2-(((1R,4r)-4-(((R)-5-((S)-2-hydroxypropyl)-6,7-dihydro-5H-cyclopenta[4,5]thieno[2,3-d]pyrimidin-4-yl)oxy)cyclohexyl)(methyl)amino)-1-(pyrrolidin-1-yl)ethanone], the IC50 is less than 5 µM.

For `CN(C)[C@H]1CC[C@H](Oc2ncnc3sc4c(c23)[C@@H](C[C@H](O)C(F)(F)F)CC4)CC1` [Compound I-70, (S)-3-((R)-4-(((1r,4R)-4-(dimethylamino)cyclohexyl)oxy)-6,7-dihydro-5H-cyclopenta[4,5]thieno[2,3-d]pyrimidin-5-yl)-1,1,1-trifluoropropan-2-ol], the half-maximal inhibitory concentration (IC50) is less than 5 µM.

Take `CC1(C(N)=O)CCc2sc3ncnc(O[C@H]4CC[C@H](N5CCOCC5)CC4)c3c2C1` (stereo partly drawn) [Compound I-237, 12-methyl-3-[[(1r,4r)-4-(morpholin-4-yl)cyclohexyl]oxy]-8-thia-4,6-diazatricyclo[7.4.0.0[2,7]]trideca-1(9),2,4,6-tetraene-12-carboxamide]: the IC50 was less than 5 µM.

As to `CN(C)[C@H]1CC[C@H](Nc2ncnc3sc4c(c23)C(C)(C)CC4)CC1` [Compound I-6, (1r,4r)-N1-(5,5-dimethyl-6,7-dihydro-5H-cyclopenta[4,5]thieno[2,3-d]pyrimidin-4-yl)-N4,N4-dimethylcyclohexane-1,4-diamine], the IC50 was in the range of 5 to 20 µM.

On to `NC(=O)C(O)C[C@H]1CCc2sc3ncnc(N[C@H]4CC[C@H](N5CCOCC5)CC4)c3c21` (mixture of isomers) [Compound I-118, 2-hydroxy-3-((R)-4-(((1r,4R)-4-morpholinocyclohexyl)amino)-6,7-dihydro-5H-cyclopenta[4,5]thieno[2,3-d]pyrimidin-5-yl)propanamide], for which the half-inhibitory concentration (IC50) was less than 5 µM.

`CN(C)[C@H]1CC[C@H](Oc2ncnc3sc4c(c23)[C@@H](CO)CC4)CC1` [Compound I-19, ((R)-4-(((1r,4R)-4-(dimethylamino)cyclohexyl)oxy)-6,7-dihydro-5H-cyclopenta[4,5]thieno[2,3-d]pyrimidin-5-yl)methanol]: the 50% inhibitory concentration (IC50) was less than 5 µM.

For the compound `CCOC(=O)C1CCc2sc3ncnc(N[C@H]4CC[C@H](N)CC4)c3c21` (stereo partly drawn) [Compound I-2, ethyl 4-(((1r,4r)-4-aminocyclohexyl)amino)-6,7-dihydro-5H-cyclopenta[4,5]thieno[2,3-d]pyrimidine-5-carboxylate], the IC50 was 20 to 50 µM.

Regarding `NC(=O)[C@H](O)C[C@H]1CCc2sc3ncnc(O[C@H]4CC[C@H](N)CC4)c3c21` [Compound I-138, (R)-3-((R)-4-(((1 r,4R)-4-aminocyclohexyl)oxy)-6,7-dihydro-5H-cyclopenta[4,5]thieno[2,3-d]pyrimidin-5-yl)-2-hydroxypropanamide], the half-maximal inhibitory concentration (IC50) was less than 5 µM.
